Assay results published in US4238500A, “Cyclic double hemiacetals of enediol compounds and compositions and methods for preparing and using same” (National Foundation for Cancer Research, priority 1979, dated 1980).
pIC50: −log10 of the molar value.

Assays:
[1] = test system: edema of the rat paw produced by carrageenan; test: Carrageenan-induced edema of the rat paw
Experimental: In other experiments, edema of the rat paw was produced by intradermal injection of carrageenan (0.1 ml of 1% solution in saline).

[2] = test system: capillary permeability produced by serotonin or histamine; test: Increased capillary permeability by intradermal serotonin or histamine (trypan blue) in rats; type: in vivo; details: 100 mg/kg i.p. 30 minutes before, serotonin 0.05 μg or histamine 1 μg intradermal
Experimental: In one series of tests, rats were treated i.v. with trypan blue and then the increased capillary permeability produced by intradermal injection of serotonin (0.05 μg) or histamine (1 μg) was measured.
No effect of methylglyoxal-ascorbic acid compound or L-ascorbic acid could be found in this system.

[3] = test system: guinea pig ileum; test: Effects on pain receptors: twitch height of coaxially stimulated guinea pig ileum; details: Cavia porcellus, read-out: ED50 (50% reduction in twitch height)
[4] = test system: acute myelocytic leukemia; details: 13 patients with acute myelocytic leukemia; all then-current therapy 13%; cited from earlier work
[5] = test system: viral disease; details: cited from earlier work
[6] = test system: glyoxalase enzyme system; details: converted by glyoxalase to D-lactic acid in presence of reduced glutathione; cited from earlier work
[7] = 199 mg/kg i.p. versus indomethacin 3 mg/kg per os

## O=C1O[C@H]([C@@H](O)CO)C(O)=C1O [L-ascorbic acid]
[1]; 199 mg/kg i.p. 60 minutes prior to carrageenan
  anti-inflammatory activity (rat paw edema): somewhat anti-inflammatory
[1]; [7]
  activity compared with indomethacin: far less active than indomethacin
  ratio of effectiveness (indomethacin versus compound): approximately 200
[2]
  effect on increased capillary permeability: No effect
[3]
  pIC50: 1.49

## CC(C=NNC(=N)N)=NNC(=N)N [methylglyoxal bis(guanylhydrazone)]
[4]
  complete remission frequency: 69%

## O=CC(=O)Cc1ccccc1 [benzylglyoxal]
[5]
  antiviral activity: have antiviral activity

## CC(=O)C=O [methylglyoxal]
[3]
  pIC50: 2.10
[6]
  lability in vivo: extremely labile in vivo

## O=CC(=O)C1CCCCC1 [cyclohexylglyoxal]
[5]
  antiviral activity: have antiviral activity
